The values below come from patent publication EP1505064A1, “2-Aminopyrimidine derivatives” (Bayer HealthCare AG, priority 2003, dated 2005).

pIC50: −log10 of the molar value. Structures can show the parent of a compound that is named as a salt.

Chain of human H4 (Q9H3N8 whole entry): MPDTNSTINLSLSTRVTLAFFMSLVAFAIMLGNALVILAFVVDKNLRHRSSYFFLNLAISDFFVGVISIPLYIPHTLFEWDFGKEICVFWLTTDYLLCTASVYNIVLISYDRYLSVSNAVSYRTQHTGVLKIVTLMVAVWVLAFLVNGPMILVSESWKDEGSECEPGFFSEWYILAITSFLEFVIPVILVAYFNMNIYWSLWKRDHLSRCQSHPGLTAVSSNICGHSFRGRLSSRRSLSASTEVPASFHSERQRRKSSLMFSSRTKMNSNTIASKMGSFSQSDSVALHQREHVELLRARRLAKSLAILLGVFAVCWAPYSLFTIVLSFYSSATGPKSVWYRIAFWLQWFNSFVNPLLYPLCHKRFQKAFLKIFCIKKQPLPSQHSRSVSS

This test has as its target human H4 (Homo sapiens, UniProt Q9H3N8). Nature of the test: Calcium mobilization in CHO cells transfected with human H4 (Assay 1). The conditions noted are these: calcium mobilization induced by 100 nM histamine in CHO-H4 cells; compounds at purity of about 40 to 90%; read-out: Activity Class. In kind it is cell-based. On the procedure:
[Calcium Mobilization in CHO cells transfected with human H4] (Assay1)
A fusion construct consisting of the n-terminal part of H4 and the C-terminal part of the G protein Gα 6 was transfected into CHO cells containing the aequorin-controlled luciferase gene (CHOAQLuci cells). Recombinant clones showing aequorin luminescence after the addition of 1 µM histamine were isolated. Starting with three independent primary cell clones three sets of tertiary clones were generated by two successive rounds of limiting dilution. Analysis of the primary clones as well as each subcloning by limiting dilution was monitored by "clone-pool analysis" comparing H4-transfected to mock-transfected (expression vector without H4 receptor cDNA) clones.
CHO-H4 cells were seeded at 2 x 10^4 cells per well in Biocoat poly-D-Lysine 96 well black/clear plates (BECTON DICKINSON, Franklin Lakes, US) in D-MEM/F12 medium supplemented with 10% FCS and 400 µg/ml Geneticin (Invitrogen GIBCO, Carlsbad, US) and 2 mM butylrate for O/N. The medium was removed and cells were loaded with 1 µM Fluo-3 (Molecular Probes, Eugene, USA) in loading solution (0.1% BSA, 20mM HEPES Hank's Buffer, 1mM probinecid) for 1 h. The loading buffer was removed and exchanged for fresh loading buffer. Cells were pretreated with various concentrations of test compounds and subjected to calcium mobilization measurement induced by 100 nM histamine by using FDSS6000.
Assay results in Assay 1 are shown in Examples and tables of the Examples below. The data corresponds to the compounds as yielded by solid phase synthesis and thus to levels of purity of about 40 to 90%. For practical reasons, the compounds are grouped in four classes of activity as follows: A IC50 20nM < B IC50 100nM C < IC50 500nM D
For the compound `CNC1CCN(c2cc(-c3ccccc3)nc(N)n2)C1` (stereo not drawn) [Example 1, 4-[3-(Methylamino)pyrrolidin-1-yl]-6-phenylpyrimidin-2-amine trihydrochloride], the pIC50 is over 7.70.
As for `CNC1CCN(c2cc(-c3cccc(C#N)c3)nc(N)n2)C1` (stereo not drawn) [Example 2, 3-{2-Amino-6-[3-(methylamino)pyrrolidin-1-yl]pyrimidin-4-yl}benzonitrile trihydrochloride], the figure is 7.00 to 7.70; as for `Nc1nc(-c2ccccc2)cc(N2CCC(N)C2)n1` (stereo not drawn) [Example 3, 4-(3-aminopyrrolidin-1-yl)-6-phenylpyrimidin-2-amine trihydrochloride], 7.00 to 7.70; as for `CN[C@@H]1CCN(c2cc(-c3cccc([N+](=O)[O-])c3)nc(N)n2)C1` [Example 6, 4-[(3R)-3-(methylamino)pyrrolidin-1-yl]-6-(3-nitrophenyl)pyrimidin-2-amine trihydrochloride], over 7.70.
For the compound `CN[C@H]1CCN(c2cc(-c3cccc([N+](=O)[O-])c3)nc(N)n2)C1` [Example 7, 4-[(3 S)-3-(methylamino)pyrrolidin-1-yl]-6-(3-nitrophenyl)pyrimidin-2-amine trihydrochloride], the pIC50 was 6.30 to 7.00.
`CN[C@H]1CCN(c2cc(-c3ccccc3)nc(N)n2)C1` [Example 8, 4-[(3S)-3-(methylamino)pyrrolidin-1-yl]-6-phenylpyrimidin-2-amine trihydrochloride]: the pIC50 was 7.00 to 7.70.
